Counter-ions that a name gives are not always drawn.
biological target: T1, haematopoietic prostaglandin D synthase (H-PGDS) (Homo sapiens, UniProt O60760); assay: H-PGDS RapidFire high throughput mass spectrometry assay (conversion of PGH2 to PGD2); type: biochemical; details: 10 nM H-PGDS, PGH2 formed in situ by COX-2 from arachidonic acid; read-out: Potency Range (mean pIC50) (converted)
T1 construct: Full length human H-PGDS cDNA (Invitrogen Ultimate ORF 10H13026) was amplified by PCR; 6-His (N); TEV protease cleavage site (N); made in house; host or cells: E. coli BL21 (DE3*), vector pET22b+
T1 sequence (O60760 whole entry): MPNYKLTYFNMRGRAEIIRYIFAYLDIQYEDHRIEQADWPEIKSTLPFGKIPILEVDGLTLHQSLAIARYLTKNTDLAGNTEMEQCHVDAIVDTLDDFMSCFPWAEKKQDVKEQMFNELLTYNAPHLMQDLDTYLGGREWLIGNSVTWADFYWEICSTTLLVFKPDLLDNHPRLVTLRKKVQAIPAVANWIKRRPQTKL
Procedure: H-PGDS RapidFire™ High Throughput Mass Spectrometry Assay
The H-PGDS RapidFire™ mass spectrometric assay monitors conversion of prostaglandin H2 (PGH2) to prostaglandin D2 (PGD2) by haematopoietic prostaglandin D synthase (H-PGDS). In the assay format described here, the substrate (PGH2) is formed in situ by the action of cyclooxygenase-2 on arachidonic acid. This first step is set up to be fast, and generates a burst of PGH2 at ˜10 μM. The PGH2 is then further converted to PGD2 by the H-PGDS enzyme. […] Plates are then read on the RapidFire™ high throughput solid phase extraction system (Agilent) which incorporates a solid phase extraction step coupled to a triple quadrupole mass spectrometer (AB SCIEX). Relative levels of PGD2 and PGF2α, which acts as a surrogate for substrate, are measured and a percent conversion calculated.
Expression and Purification of H-PGDS Protein
Full length human H-PGDS cDNA (Invitrogen Ultimate ORF 10H13026) was amplified by PCR with the addition of a 5′ 6-His tag and TEV protease cleavage site. The PCR product was digested with Ndel and Xhol and ligated into pET22b+ (Merck Novagen®). Expression was carried out in E. coli strain BL21 (DE3*) using auto-induction Overnight Express™ Instant TB medium (Merck Novagen®) supplemented with 1% glycerol. The culture was first grown at 37° C. and the temperature was reduced to 25° C. when OD600 reached 2.0. Cells were harvested by centrifugation after a further 18 hr. 10 g of E. coli cell pellet was suspended to a total volume of 80 mL in lysis buffer (20 mM Tris-Cl pH 7.5, 300 mM NaCl, 20 mM imidazole, 5 mM β-mercaptoethanol, 10% glycerol). 1 mg/mL protease inhibitors (Protease Inhibitor Cocktail Set III, Merck Calbiochem®) and 1 mg/mL lysozyme were added to the cell suspension. The suspension was then sonicated for 5 min (UltraSonic Processor VCX 750, Cole-Parmer Instrument Co.) with a micro probe (50% amplitude, 10 sec on/off) and then centrifuged at 100,000 g for 90 min (at 4° C.). The supernatant was loaded onto a Ni-NTA HiTrap column (5 mL, GE Healthcare, pre-equilibrated in lysis buffer). The column was washed with 10 column volumes of lysis buffer and eluted with lysis buffer containing 500 mM imidazole. The pooled protein peak fractions were concentrated using a 10 kDa centrifugal filter at 3500 g and 4° C. (Amicon Ultra-15 centrifugal filter unit with Ultracel-10 membrane from Millipore). Further purification of the concentrated protein was carried out using gel filtration chromatography on a HiLoad 26/600 Superdex 75 preparative grade column (GE Healthcare Life Sciences) using 50 mM Tris pH 7.5, 50 mM NaCl, 1 mM dithiothreitol, 1 mM MgCl2. Fractions containing the protein were pooled, concentrated as described above, and stored at −80° C.
Expression and Purification of Cyclooxygenase-2 (COX-2) Protein
The full length human COX-2 gene (accession number L15326) was amplified by PCR to generate an EcoRI-HindIII fragment containing an in-frame FLAG tag. This was subcloned into pFastBac 1 (Invitrogen). The COX2 FLAG plasmid was recombined into the baculovirus genome according to the BAC-to-BAC protocol described by Invitrogen. Transfection into Spodoptera frugiperda (Sf9) insect cells was performed using Cellfectin (Invitrogen), according to the manufacturer's protocol. […] Cells were harvested using a continuous feed centrifuge run at 2500 g at a rate of approximately 2 L/min with cooling. The resultant cell slurry was re-centrifuged in pots (2500 g, 20 min, 4° C.) and the cell paste was stored at −80° C. […] The suspension was sonicated in 500 mL batches for 8×5 seconds at 10 u amplitude with the medium tip of an MSE probe sonicator and subsequently incubated at 4° C. for 90 min with gentle stirring. The lysate was centrifuged at 12000 rpm for 45 min at 4° C. in a Sorvall SLA1500 rotor. The supernatant (1400 mL) was added to 420 mL of 20 mM Tris-Cl pH 7.4, 150 mM NaCl, 0.1 mM EDTA to reduce the concentration of n-octyl-6-D-glucopyranoside to 1% w/v.

SMILES	IC50 [nM]
Cc1ccc(CNC(=O)[C@H]2C[C@H](Oc3cccc4scnc34)C2)o1 [Example 255, (trans)-3-(Benzo[d]thiazol-4-yloxy)-N-((5-methylfuran-2-yl)methyl)cyclobutanecarboxamide]	100 to 1000
N#Cc1ccnc(N2CC(NC(=O)N3CC(Oc4cc(F)cc5scnc45)C3)C2)c1 [Example 134]	10 to 79.4
O=C(NC1CN(c2ncc(CO)cn2)C1)N1CC(Oc2cc(F)cc3scnc23)C1 [Example 113, 3-((6-Fluorobenzo[d]thiazol-4-yl)oxy)-N-(1-(5-(hydroxymethyl)pyrimidin-2-yl)azetidin-3-yl)azetidine-1-carboxamide]	10 to 79.4
O=C(Nc1cncnc1)[C@H]1C[C@H](Oc2cc(F)ccc2OC(F)F)C1 [Example 22, (trans)-3-(2-(Difluoromethoxy)-5-fluorophenoxy)-N-(pyrimidin-5-yl)cyclobutanecarboxamide]	100 to 1000
Cc1cc(NC(=O)[C@H]2C[C@H](Oc3cccc4scnc34)C2)ncn1 [Example 307, (trans)-3-(Benzo[d]thiazol-4-yloxy)-N-(6-methylpyrimidin-4-yl)cyclobutanecarboxamide]	10 to 79.4
COc1ccc(F)cc1O[C@H]1C[C@H](C(=O)NC2CCN(c3nccs3)CC2)C1 [Example 154, (trans)-3-(5-Fluoro-2-methoxyphenoxy)-N-(1-(thiazol-2-yl)piperidin-4-yl)cyclobutanecarboxamide]	10 to 79.4
COc1ccc(F)cc1O[C@H]1C[C@H](C(=O)NC2CC3(C2)CN(c2cc(C#N)ccn2)C3)C1 [Example 148, (trans)-N-(2-(4-Cyanopyridin-2-yl)-2-azaspiro[3.3]heptan-6-yl)-3-(5-fluoro-2-methoxyphenoxy)cyclobutanecarboxamide]	10 to 79.4
Cc1cnc(N2CC(NC(=O)[C@H]3C[C@H](Oc4cc(F)cc5scnc45)C3)C2)nc1 [Example 112, (trans)-3-((6-Fluorobenzo[d]thiazol-4-yl)oxy)-N-(1-(5-methylpyrimidin-2-yl)azetidin-3-yl)cyclobutanecarboxamide]	10 to 79.4
CC(=O)c1csc(NC(=O)[C@H]2C[C@H](Oc3cc(Cl)ccc3OC(F)F)C2)n1 [Example 272, (trans)-N-(4-Acetylthiazol-2-yl)-3-(5-chloro-2-(difluoromethoxy)phenoxy)cyclobutanecarboxamide]	10 to 79.4
O=C(NC1CN(c2ncc(F)cn2)C1)[C@H]1C[C@H](Oc2cc(F)cc3scnc23)C1 [Example 136, (trans)-3-((6-Fluorobenzo[d]thiazol-4-yl)oxy)-N-(1-(5-fluoropyrimidin-2-yl)azetidin-3-yl)cyclobutanecarboxamide]	10 to 79.4
CCOC(=O)c1csc(NC(=O)[C@H]2C[C@H](Oc3cc(F)ccc3OC(F)F)C2)n1 [Example 31, ethyl 2-((trans)-3-(2-(difluoromethoxy)-5-fluorophenoxy)cyclobutanecarboxamido)thiazole-4-carboxylate]	< 10
CC(C)(O)C12C3C4C1C1C2C3C41NC(=O)[C@H]1C[C@H](Oc2cccc3scnc23)C1 (stereo partly drawn) [Example 320, (trans)-3-(Benzo[d]thiazol-4-yloxy)-N-(4-(2-hydroxypropan-2-yl)cuban-1-yl)cyclobutane-1-carboxamide]	10 to 79.4
O=C(Nc1ccncc1)N1CC(Oc2cccc3scnc23)C1 [Example 63, 3-(Benzo[d]thiazol-4-yloxy)-N-(pyridin-4-yl)azetidine-1-carboxamide]	100 to 1000
O=C(Nc1ncc(CO)s1)[C@H]1C[C@H](Oc2cccc3cccnc23)C1 [Example 210, (trans)-N-(5-(Hydroxymethyl)thiazol-2-yl)-3-(quinolin-8-yloxy)cyclobutanecarboxamide]	10 to 79.4
COc1ccc(F)cc1O[C@H]1C[C@H](C(=O)NC2CCN(c3cc(C#N)ccn3)CC2)C1 [Example 155, (trans)-N-(1-(4-Cyanopyridin-2-yl)piperidin-4-yl)-3-(5-fluoro-2-methoxyphenoxy)cyclobutanecarboxamide]	10 to 79.4
Cc1nnc(NC(=O)[C@H]2C[C@H](Oc3cccc4ccoc34)C2)s1 [Example 266, (trans)-3-(Benzofuran-7-yloxy)-N-(5-methyl-1,3,4-thiadiazol-2-yl)cyclobutanecarboxamide]	10 to 79.4
CC(C)(O)CO[C@H]1CC[C@H](NC(=O)N2CC(Oc3cccc4scnc34)C2)CC1 [Example 106, 3-(Benzo[d]thiazol-4-yloxy)-N-((trans)-4-(2-hydroxy-2-methylpropoxy)cyclohexyl)azetidine-1-carboxamide]	10 to 79.4
CC(C)(O)Cc1csc(NC(=O)[C@H]2C[C@H](Oc3cccc4cccnc34)C2)n1 [Example 209, (trans)-N-(4-(2-Hydroxy-2-methylpropyl)thiazol-2-yl)-3-(quinolin-8-yloxy)cyclobutanecarboxamide trifluoroacetic acid salt]	10 to 79.4
CS(=O)(=O)c1ccc(NC(=O)N2CC(Oc3cccc4scnc34)C2)c(F)c1 [Example 308, 3-(Benzo[d]thiazol-4-yloxy)-N-(2-fluoro-4-(methylsulfonyl)phenyl)azetidine-1-carboxamide]	10 to 79.4
CS(=O)(=O)c1ccc(NC(=O)[C@H]2C[C@H](Oc3cccc4scnc34)C2)c(F)c1 [Example 247, (trans)-3-(Benzo[d]thiazol-4-yloxy)-N-(2-fluoro-4-(methylsulfonyl)phenyl)cyclobutanecarboxamide]	10 to 79.4
C[C@H]1[C@@H](Oc2cccc3scnc23)CN1C(=O)N[C@H]1CC[C@H](C(C)(C)O)CC1 [Example 304, (2S,3S)-3-(Benzo[d]thiazol-4-yloxy)-N-((trans)-4-(2-hydroxypropan-2-yl)cyclohexyl)-2-methylazetidine-1-carboxamide]	10 to 79.4
CC(C)c1nsc(NC(=O)N2CC(Oc3cccc4scnc34)C2)n1 [Example 337, 3-(Benzo[d]thiazol-4-yloxy)-N-(3-isopropyl-1,2,4-thiadiazol-5-yl)azetidine-1-carboxamide]	< 10
COCCO[C@H]1CC[C@H](NC(=O)[C@H]2C[C@H](Oc3cccc4scnc34)C2)CC1 [Example 58, (trans)-3-(Benzo[d]thiazol-4-yloxy)-N-((trans)-4-(2-methoxyethoxy)cyclohexyl)cyclobutanecarboxamide]	100 to 1000
CC(=O)c1csc(NC(=O)[C@H]2C[C@H](Oc3cccc4cccnc34)C2)n1 [Example 186, trans-N-(4-Acetylthiazol-2-yl)-3-(quinolin-8-yloxy)cyclobutanecarboxamide]	10 to 79.4
O=C(NC1CCN(C(=O)OCc2ccccc2)CC1)N1CC(Oc2cccc3scnc23)C1 [Example 89, Benzyl 4-(3-(benzo[d]thiazol-4-yloxy)azetidine-1-carboxamido)piperidine-1-carboxylate]	10 to 79.4
O=C1Nc2ccccc2C1NC(=O)[C@H]1C[C@H](Oc2cc(F)ccc2OC(F)F)C1 (mixture of isomers) [Example 24, Racemic (trans)-3-(2-(Difluoromethoxy)-5-fluorophenoxy)-N-(2-oxoindolin-3-yl)cyclobutanecarboxamide]	10 to 79.4

Source: patent US11053234B2 (GlaxoSmithKline Intellectual Property Development Limited, priority 2016, dated 2021)
